US9597407B2, “Targeted antimicrobial moieties” (C3 Jian, Inc., priority 2009, dated 2017)
Entries after “also recorded” stand apart in the source; their conditions may differ.

Experiments:
bacteria = assay: Binding of targeting peptides to microorganisms (Table 3); settings: preferably 1x PBS; for Target(s) (microorganism bound by the targeting peptide) / Target(s) (microorganisms bound by the targeting peptide): peptide binding in aqueous buffers that varied depending on peptide solubility
microorganisms = assay: Morphology, biofilm and growth disruption by peptides (Table 5); format: cell-based; parameters: key: A: Peptide aggregates; B: Less hyphal formation; Clumps; Diffuse clumps and small polyps; F: Diffuse growth; H: Thin; I: Growth inhibition; Microcolony formation; Rippled; Small polyps; Thick; W: Halo formation on top, microlonies on bottom
Source text: In certain embodiments peptides that induce alterations in phenotype or other biological activities can also be used as antimicrobial effector moieties.

[1] = microorganism bound by the targeting peptide, binding in aqueous buffers chosen by peptide solubility

Substance: PF-644 (chain 1 TSGLIIGENGLNGL; chain 2 TSGLIIGENGLNGL; Peptide with targeting and/or antimicrobial activity)
- Target(s) (microorganism bound by the targeting peptide) (bacteria): Mycobacteria spp
- Organism, effect (morphology, biofilm and growth disruption) (microorganisms; S. pneumoniae): S. pneumoniae (H)

Substance: PF-405 (LVRIEVDDLEEWYERNFI; Peptide with targeting and/or antimicrobial activity)
- Target(s) (microorganisms bound by the targeting peptide) (bacteria): S. epidermidis; also recorded: E. coli; also recorded: E. faecalis
- Organism, effect (microorganisms; MRSA): MRSA (M)

Substance: PF-255 (DHKINESQHNPFRSDSNKQNVDFF; Peptide with targeting and/or antimicrobial activity)
- Target(s) (bacteria; [1]): P. aeruginosa
- Organism, effect (microorganisms; M. luteus): M. luteus (M)

Substance: PF-C137 (QRMYWFKRGFETGDFSAGDTFAELK; Peptide with targeting and/or antimicrobial activity)
- Target(s) (microorganism bound by the targeting peptide) (bacteria): A. naeslundii; also recorded: F. nucleatum; also recorded: P. gingivalis; also recorded: S. mutans
- Organism, effect (morphology, biofilm and growth disruption) (microorganisms; F. nucleatum): F. nucleatum (T)

Substance: PF-638 (chain 1 TFILPK; chain 2 TFILPK; Peptide with targeting and/or antimicrobial activity)
- Target(s) (microorganism bound by the targeting peptide) (bacteria): S. epidermidis and C. albicans and MRSA and C. jeikeium
- Organism, effect (morphology, biofilm and growth disruption) (microorganisms; E. faecalis): E. faecalis (H)
- Organism, effect (morphology, biofilm and growth disruption) (microorganisms; MRSA): MRSA (M)
- Organism, effect (morphology, biofilm and growth disruption) (microorganisms; S. epidermidis): S. epidermidis (R)
- Organism, effect (morphology, biofilm and growth disruption) (microorganisms; S. pneumoniae): S. pneumoniae (I)

Substance: MQIFYIKTKIFLSFFLFLLIFSQCFYKIEE [PF-442]
- Target(s) (microorganisms bound by the targeting peptide) (bacteria): S. epidermidis; also recorded: E. coli; also recorded: C. albicans; also recorded: S. pneumoniae; also recorded: E. faecalis
- Organism, effect (morphology, biofilm and growth disruption) (microorganisms; MRSA): MRSA (M)
- Organism, effect (morphology, biofilm and growth disruption) (microorganisms; S. pneumoniae): S. pneumoniae (C)

Substance: PF-684 (chain 1 RKLSLASGFALWRRSLV; chain 2 RKLSLASGFALWRRSLV; Peptide with targeting and/or antimicrobial activity)
- Target(s) (microorganism bound by the targeting peptide) (bacteria): Mycobacteria spp
- Organism, effect (morphology, biofilm and growth disruption) (microorganisms; C. albicans): C. albicans (B)
- Organism, effect (morphology, biofilm and growth disruption) (microorganisms; E. faecalis): E. faecalis (A)
- Organism, effect (morphology, biofilm and growth disruption) (microorganisms; S. pneumoniae): S. pneumoniae (C)

Substance: PF-675 (chain 1 EIIPISPTRRCEMHTMSSAEYRGL; chain 2 EIIPISPTRRCEMHTMSSAEYRGL; Peptide with targeting and/or antimicrobial activity)
- Target(s) (microorganism bound by the targeting peptide) (bacteria): Mycobacteria spp
- Organism, effect (morphology, biofilm and growth disruption) (microorganisms; E. faecalis): E. faecalis (R)
- Organism, effect (morphology, biofilm and growth disruption) (microorganisms; S. pneumoniae): S. pneumoniae (C)

Substance: PF-173 (AGRTAIVQGGG; Peptide with targeting and/or antimicrobial activity)
- Target(s) (bacteria; [1]): S. epidermidis; also recorded: M. luteus; also recorded: P. mirabilis; also recorded: E. coli; also recorded: P. aeruginosa; also recorded: C. albicans; also recorded: C. jeikeium; also recorded: C. jejuni
- Organism, effect (microorganisms; C. jeikeium): C. jeikeium (D)
- Organism, effect (microorganisms; S. epidermidis): S. epidermidis (A)

Substance: PF-212 (NDSKASN; Peptide with targeting and/or antimicrobial activity)
- Target(s) (bacteria; [1]): M. luteus; also recorded: P. aeruginosa
- Organism, effect (microorganisms; M. luteus): M. luteus (M)

Substance: PF-631 (chain 1 LIIYFSKTGNTARATRQI; chain 2 LIIYFSKTGNTARATRQI; Peptide with targeting and/or antimicrobial activity)
- Target(s) (microorganism bound by the targeting peptide) (bacteria): S. epidermidis and P. aeruginosa and C. albicans and MRSA and S. pneumoniae and E. faecalis and C. jeikeium
- Organism, effect (morphology, biofilm and growth disruption) (microorganisms; E. faecalis): E. faecalis (H)
- Organism, effect (morphology, biofilm and growth disruption) (microorganisms; S. pneumoniae): S. pneumoniae (I)

Substance: PF-156 (LITAEQPATAPIAGK; Peptide with targeting and/or antimicrobial activity)
- Target(s) (bacteria; [1]): S. epidermidis; also recorded: C. jeikeium
- Organism, effect (microorganisms; MRSA): MRSA (H)

Substance: PF-176 (RLTSNQFLTRITPFVFAQH; Peptide with targeting and/or antimicrobial activity)
- Target(s) (bacteria; [1]): S. epidermidis and M. luteus and P. mirabilis and E. coli and C. albicans and MRSA and E. faecalis and C. jeikeium
- Organism, effect (microorganisms; C. jeikeium): C. jeikeium (D)
- Organism, effect (microorganisms; M. luteus): M. luteus (C)
- Organism, effect (microorganisms; S. epidermidis): S. epidermidis (C)

Substance: LMFFSENMDKRDTLSGKFRYFAGSKVIKLMNWLSENGK [PF-226]
- Target(s) (bacteria; [1]): A. baumannii
- Organism, effect (microorganisms; M. luteus): M. luteus (T)
- Organism, effect (microorganisms; S. epidermidis): S. epidermidis (C)

Substance: PF-639 (chain 1 QATQIKSWIDRLLVSED; chain 2 QATQIKSWIDRLLVSED; Peptide with targeting and/or antimicrobial activity)
- Target(s) (microorganism bound by the targeting peptide) (bacteria): S. pneumoniae; also recorded: C. jeikeium
- Organism, effect (morphology, biofilm and growth disruption) (microorganisms; C. albicans): C. albicans (B)
- Organism, effect (morphology, biofilm and growth disruption) (microorganisms; E. faecalis): E. faecalis (H)
- Organism, effect (morphology, biofilm and growth disruption) (microorganisms; MRSA): MRSA (R)
- Organism, effect (morphology, biofilm and growth disruption) (microorganisms; S. pneumoniae): S. pneumoniae (I)

Substance: PF-700 (chain 1 LNWPFTGR; chain 2 LNWPFTGR; Peptide with targeting and/or antimicrobial activity)
- Target(s) (microorganism bound by the targeting peptide) (bacteria): Mycobacteria spp
- Organism, effect (morphology, biofilm and growth disruption) (microorganisms; S. pneumoniae): S. pneumoniae (C)

Substance: PF-430 (AVVCGYLAYTATS; Peptide with targeting and/or antimicrobial activity)
- Target(s) (microorganisms bound by the targeting peptide) (bacteria): S. epidermidis; also recorded: M. luteus; also recorded: E. coli; also recorded: S. pneumoniae; also recorded: E. faecalis; also recorded: C. jeikeium; also recorded: C. jejuni
- Organism, effect (morphology, biofilm and growth disruption) (microorganisms; MRSA): MRSA (M)
- Organism, effect (morphology, biofilm and growth disruption) (microorganisms; S. epidermidis): S. epidermidis (M)
- Organism, effect (morphology, biofilm and growth disruption) (microorganisms; S. pneumoniae): S. pneumoniae (M)

Substance: CGKLLEQKNFFLKTR [PF-521]
- Target(s) (microorganisms bound by the targeting peptide) (bacteria): S. epidermidis; also recorded: E. coli; also recorded: P. aeruginosa; also recorded: S. pneumoniae; also recorded: E. faecalis
- Organism, effect (morphology, biofilm and growth disruption) (microorganisms; S. pneumoniae): S. pneumoniae (H)

Substance: PF-426 (MLQKYTQMISVTKCIITKNKKTQENVDAYN; Peptide with targeting and/or antimicrobial activity)
- Target(s) (microorganisms bound by the targeting peptide) (bacteria): S. epidermidis and E. coli and P. aeruginosa and C. albicans and MRSA and S. pneumoniae and E. faecalis and C. jeikeium
- Organism, effect (morphology, biofilm and growth disruption) (microorganisms; C. albicans): C. albicans (A)
- Organism, effect (morphology, biofilm and growth disruption) (microorganisms; C. jejuni): C. jejuni (D)
- Organism, effect (morphology, biofilm and growth disruption) (microorganisms; E. coli): E. coli (C)
- Organism, effect (morphology, biofilm and growth disruption) (microorganisms; E. faecalis): E. faecalis (D)
- Organism, effect (morphology, biofilm and growth disruption) (microorganisms; MRSA): MRSA (D)
- Organism, effect (morphology, biofilm and growth disruption) (microorganisms; S. epidermidis): S. epidermidis (D)
- Organism, effect (morphology, biofilm and growth disruption) (microorganisms; S. pneumoniae): S. pneumoniae (D)

Substance: PF-010 (chain 1 MDIDVNKLLQAFVYFKSFEKLRHNNS; chain 2 MDIDVNKLLQAFVYFKSFEKLRHNNS; Peptide with targeting and/or antimicrobial activity)
- Target(s) (bacteria; microorganism the targeting peptide binds, binding in aqueous buffers that varied with peptide solubility): S. epidermidis; also recorded: M. luteus; also recorded: E. coli; also recorded: C. albicans
- Organism, effect (microorganisms; C. jeikeium): C. jeikeium (A)
- Organism, effect (microorganisms; M. luteus): M. luteus (A)
- Organism, effect (microorganisms; MRSA): MRSA (R)
- Organism, effect (microorganisms; S. epidermidis): S. epidermidis (S)

Substance: PF-396 (LIYTILASLGVLTVLQAILGREPKAVKA; Peptide with targeting and/or antimicrobial activity)
- Target(s) (microorganisms bound by the targeting peptide) (bacteria): S. epidermidis; also recorded: E. coli; also recorded: P. aeruginosa; also recorded: C. albicans; also recorded: E. faecalis; also recorded: C. jeikeium
- Organism, effect (microorganisms; E. coli): E. coli (C)
- Organism, effect (microorganisms; E. faecalis): E. faecalis (C)
- Organism, effect (microorganisms; MRSA): MRSA (C)
- Organism, effect (microorganisms; S. epidermidis): S. epidermidis (S)

Substance: PF-191 (QFCNFAWLFLASNNAQVSALA; Peptide with targeting and/or antimicrobial activity)
- Target(s) (bacteria; [1]): E. coli; also recorded: P. aeruginosa; also recorded: C. jejuni
- Organism, effect (microorganisms; C. jeikeium): C. jeikeium (R)
- Organism, effect (microorganisms; MRSA): MRSA (H)
- Organism, effect (microorganisms; S. epidermidis): S. epidermidis (A)

Substance: PF-C139 (LLASHPERLSLGVFFVYRVLHLLLENT; Peptide with targeting and/or antimicrobial activity)
- Target(s) (microorganism bound by the targeting peptide) (bacteria): A. naeslundii; also recorded: F. nucleatum; also recorded: P. gingivalis; also recorded: S. mutans; also recorded: T. denticola
- Organism, effect (morphology, biofilm and growth disruption) (microorganisms; S. mutans): S. mutans (F)

Substance: PF-153 (GILARADCSQIA; Peptide with targeting and/or antimicrobial activity)
- Target(s) (bacteria; [1]): M. luteus and P. mirabilis and E. coli and MRSA
- Organism, effect (microorganisms; C. jeikeium): C. jeikeium (C)
- Organism, effect (microorganisms; S. epidermidis): S. epidermidis (M)

Substance: PF-135 (PPARPARIPQTPTLHGASLFRQRS; Peptide with targeting and/or antimicrobial activity)
- Target(s) (bacteria; [1]): S. epidermidis and M. luteus and E. coli and P. aeruginosa and MRSA and C. jeikeium and M. smegmatis
- Organism, effect (microorganisms; C. jeikeium): C. jeikeium (R)

Substance: PF-406 (YLEMNADYLSNMDIFDELWEKYLENNK; Peptide with targeting and/or antimicrobial activity)
- Target(s) (microorganisms bound by the targeting peptide) (bacteria): E. coli; also recorded: C. jejuni
- Organism, effect (microorganisms; MRSA): MRSA (M)
- Organism, effect (microorganisms; S. epidermidis): S. epidermidis (C)

Substance: PF-C091 (ASNTPRFVRLTLFNFYSKIWNVTHLFLFNNL; Peptide with targeting and/or antimicrobial activity)
- Target(s) (microorganism bound by the targeting peptide) (bacteria): A. naeslundii; also recorded: F. nucleatum; also recorded: P. gingivalis; also recorded: S. mutans; also recorded: T. denticola
- Organism, effect (morphology, biofilm and growth disruption) (microorganisms; F. nucleatum): F. nucleatum (T)

Substance: PF-C052 (SRFRNGV; Peptide with targeting and/or antimicrobial activity)
- Target(s) (microorganism bound by the targeting peptide) (bacteria): A. naeslundii; also recorded: F. nucleatum; also recorded: S. mutans
- Organism, effect (morphology, biofilm and growth disruption) (microorganisms; P. gingivalis): P. gingivalis (H)
